In patent US20240279230A1, “CRYSTALLINE FORMS OF A HER2 INHIBITOR” (Boehringer Ingelheim International GmbH, priority 2022, published 2024):
“Also recorded” adds a separate entry of the source.

Experiments:
Type in all cases: physicochemical
[1] = Dynamic Vapor Sorption (DVS) sorption isotherms, hygroscopic behaviour; conditions: for Hygroscopicity: DVS classification; for Δm (0-80%), moisture absorbed at 80% RH / Δm (0-90%), maximum water uptake: DVS, 25.0 ±1.0° C.; for Δm (0-90%), maximum water uptake: up to 90% RH; for Hysteresis: between sorption and desorption curves
Protocol: The methodology for this can be as follows. The mass of the solids is monitored as the relative humidity (RH) was deliberately changed. The RH is cycled twice from 0% to 90% to 0% in 10% steps. The temperature during measurement is kept constantly at (25.0 ±1.0° C.) Each step is held until mass stability was achieved. A camera inside the instrument captured an image at the conclusion of each stage, allowing for the observation of any visual changes in the solid form during the analysis.

[2] = Thermogravimetric Analysis (TGA); conditions: 20° C./min
Protocol: The methodology for this can be as follows. Solid compounds (˜5 mg) are placed in an aluminium pan and sealed. The instrument used for the analysis is a TA Instruments TGA 550. The same sample lots from DSC testing are used for TGA testing. Processing is completed using TRIOS software.

[3] = Polymorphic stability of form III and form IV under stress storage, PXRD; conditions: 21 days
Protocol: A Bruker D2 Phaser X-Ray Diffractometer (XRD, EQ-SSRD-XRD-01) can be used for characterizing the samples. Raw results are evaluated using DIFFRAC.EVA (Bruker, V5.0) software. The Kα2 contribution was stripped, and a peak search was performed using peak search parameters (width 0.302 and threshold 1.0).
A test sample (approximately 0.3 g) is representatively subsampled into an agate-type mortar and pestle. Sample is ground for approximately one minute to achieve a fine homogenous powder. Sample is then transferred into a stainless-steel sample holder fitted with a zero-diffraction plate (ZDP). The sample holder is then levelled off with a glass slide to create a flat sample surface level with the sample holder.

[4] = Chemical stability of solid state forms under temperature/humidity stress, related substances by HPLC at 252 nm; design: Impurity I / Impurity A / Impurity B / Impurity C / Impurity D / Impurity E / Impurity F / Impurity G / Impurity H: unit not given here
Source text: To do so, control samples are stored refrigerated in the presence of desiccant for the duration of the study and measured simultaneously with stressed samples by HPLC at a wavelength of 252 nm.

[5] = Control 1, stored refrigerated with desiccant
[6] = Control 2, stored refrigerated with desiccant
[7] = Control 3, stored refrigerated with desiccant

C=CC(=O)NC1CCN(c2ncc3ncnc(Nc4ccc(Oc5ccc6c(c5)ncn6C)c(C)c4)c3n2)CC1 [Form IV, N-{1-[8-({3-methyl-4-[(1-methyl-1H-1,3-benzodiazol-5-yl)oxy]phenyl}amino)-[1,3]diazino[5,4-d]pyrimidin-2-yl]piperidin-4-yl}prop-2-enamide]
Change in visual appearance during the humidity cycles ([1]; DVS camera images): No change in the visual appearance | Hygroscopicity [1]: slightly hygroscopic | Hygroscopicity ([1]; listed as form IV): slightly hygroscopic | Δm (0-80%), moisture absorbed at 80% RH [1]: 0.4 wt % | Δm (0-80%), moisture absorbed at 80% RH ([1]; listed as form IV): 0.4 wt % | Δm (0-90%), maximum water uptake [1]: 0.5 wt % | Δm (0-90%), maximum water uptake ([1]; listed as form IV): 0.5 wt % | Phase change during DVS experiment ([1]; RH cycled twice 0% to 90% to 0%): no indication of irreversible phase conversion or hydrate formation; also recorded: no irreversible phase changes | Hysteresis [1]: no | Hysteresis ([1]; listed as form IV): lack of hysteresis | TGA change in mass ([2]; Decomposition): 49.938% | TGA onset ([2]; Decomposition): 420.14 °C | TGA change in mass ([2]; Small mass loss event): 1.285% | TGA end ([2]; Small mass loss event): 243.82 °C | TGA onset ([2]; Small mass loss event): 224.60 °C | TGA change in mass ([2]; Small mass loss event, listed as form IV): around 1% | Polymorphic stability by PXRD ([3]; open storage 90° C./3% RH): stable and conformed to form IV reference standard; also recorded: neither form underwent phase changes | Polymorphic stability by PXRD ([3]; open storage 90° C./78% RH): stable and conformed to form IV reference standard; also recorded: neither form underwent phase changes | Color change after stressing ([4]; 60-90° C., 3-79% RH, up to 21 days): No color changes | Impurity A ([4]; 60° C./75% RH, 17 days): 0.111 | Impurity B ([4]; 60° C./75% RH, 17 days): 0.008 | Impurity C ([4]; 60° C./75% RH, 17 days): 0.066 | Impurity D ([4]; 60° C./75% RH, 17 days): 0.014 | Impurity E ([4]; 60° C./75% RH, 17 days): 0.074 | Impurity F ([4]; 60° C./75% RH, 17 days): 0.012 | Impurity G ([4]; 60° C./75% RH, 17 days): 0.037 | Impurity H ([4]; 60° C./75% RH, 17 days): 0.132 | Impurity I ([4]; 60° C./75% RH, 17 days): 0.012 | Impurity A ([4]; 70° C./62% RH, 17 days): 0.113 | Impurity B ([4]; 70° C./62% RH, 17 days): 0.010 | Impurity C ([4]; 70° C./62% RH, 17 days): 0.065 | Impurity D ([4]; 70° C./62% RH, 17 days): 0.022 | Impurity E ([4]; 70° C./62% RH, 17 days): 0.069 | Impurity F ([4]; 70° C./62% RH, 17 days): 0.013 | Impurity G ([4]; 70° C./62% RH, 17 days): 0.038 | Impurity H ([4]; 70° C./62% RH, 17 days): 0.133 | Impurity I ([4]; 70° C./62% RH, 17 days): 0.012 | Impurity A ([4]; 75° C./41% RH, 17 days): 0.113 | Impurity B ([4]; 75° C./41% RH, 17 days): 0.010 | Impurity C ([4]; 75° C./41% RH, 17 days): 0.072 | Impurity D ([4]; 75° C./41% RH, 17 days): 0.015 | Impurity E ([4]; 75° C./41% RH, 17 days): 0.078 | Impurity F ([4]; 75° C./41% RH, 17 days): 0 | Impurity G ([4]; 75° C./41% RH, 17 days): 0.027 | Impurity H ([4]; 75° C./41% RH, 17 days): 0.129 | Impurity I ([4]; 75° C./41% RH, 17 days): 0.010 | Impurity A ([4]; 75° C./79% RH, 10 days): 0.103 | Impurity B ([4]; 75° C./79% RH, 10 days): 0.010 | Impurity C ([4]; 75° C./79% RH, 10 days): 0.065 | Impurity D ([4]; 75° C./79% RH, 10 days): 0.017 | Impurity E ([4]; 75° C./79% RH, 10 days): 0.073 | Impurity F ([4]; 75° C./79% RH, 10 days): 0.016 | Impurity G ([4]; 75° C./79% RH, 10 days): 0.038 | Impurity H ([4]; 75° C./79% RH, 10 days): 0.130 | Impurity I ([4]; 75° C./79% RH, 10 days): 0.012 | Impurity A ([4]; 80° C./11% RH, 17 days): 0.109 | Impurity B ([4]; 80° C./11% RH, 17 days): 0.009 | Impurity C ([4]; 80° C./11% RH, 17 days): 0.073 | Impurity D ([4]; 80° C./11% RH, 17 days): 0.013 | Impurity E ([4]; 80° C./11% RH, 17 days): 0.086 | Impurity F ([4]; 80° C./11% RH, 17 days): 0 | Impurity G ([4]; 80° C./11% RH, 17 days): 0.033 | Impurity H ([4]; 80° C./11% RH, 17 days): 0.126 | Impurity I ([4]; 80° C./11% RH, 17 days): 0.011 | Impurity A ([4]; 80° C./61% RH, 10 days): 0.111 | Impurity B ([4]; 80° C./61% RH, 10 days): 0.008 | Impurity C ([4]; 80° C./61% RH, 10 days): 0.065 | Impurity D ([4]; 80° C./61% RH, 10 days): 0.021 | Impurity E ([4]; 80° C./61% RH, 10 days): 0.070 | Impurity F ([4]; 80° C./61% RH, 10 days): 0.015 | Impurity G ([4]; 80° C./61% RH, 10 days): 0.039 | Impurity H ([4]; 80° C./61% RH, 10 days): 0.131 | Impurity I ([4]; 80° C./61% RH, 10 days): 0.011 | Impurity A ([4]; 90° C./3% RH, 17 days): 0.104 | Impurity B ([4]; 90° C./3% RH, 17 days): 0.011 | Impurity C ([4]; 90° C./3% RH, 17 days): 0.070 | Impurity D ([4]; 90° C./3% RH, 17 days): 0.018 | Impurity E ([4]; 90° C./3% RH, 17 days): 0.087 | Impurity F ([4]; 90° C./3% RH, 17 days): 0.008 | Impurity G ([4]; 90° C./3% RH, 17 days): 0.050 | Impurity H ([4]; 90° C./3% RH, 17 days): 0.125 | Impurity I ([4]; 90° C./3% RH, 17 days): 0.011 | Impurity A ([4]; 90° C./41% RH, 10 days): 0.112 | Impurity B ([4]; 90° C./41% RH, 10 days): 0.010 | Impurity C ([4]; 90° C./41% RH, 10 days): 0.065 | Impurity D ([4]; 90° C./41% RH, 10 days): 0.021 | Impurity E ([4]; 90° C./41% RH, 10 days): 0.076 | Impurity F ([4]; 90° C./41% RH, 10 days): 0.011 | Impurity G ([4]; 90° C./41% RH, 10 days): 0.044 | Impurity H ([4]; 90° C./41% RH, 10 days): 0.127 | Impurity I ([4]; 90° C./41% RH, 10 days): 0.012 | Impurity A ([4]; 90° C./78% RH, 17 days): 0.098 | Impurity B ([4]; 90° C./78% RH, 17 days): 0.011 | Impurity C ([4]; 90° C./78% RH, 17 days): 0.068 | Impurity D ([4]; 90° C./78% RH, 17 days): 0.015 | Impurity E ([4]; 90° C./78% RH, 17 days): 0.080 | Impurity F ([4]; 90° C./78% RH, 17 days): 0.014 | Impurity G ([4]; 90° C./78% RH, 17 days): 0.043 | Impurity H ([4]; 90° C./78% RH, 17 days): 0.125 | Impurity I ([4]; 90° C./78% RH, 17 days): 0.010 | Impurity A [4, 5]: 0.102 | Impurity B [4, 5]: 0.009 | Impurity C [4, 5]: 0.064 | Impurity D [4, 5]: 0.011 | Impurity E [4, 5]: 0.074 | Impurity F [4, 5]: 0.015 | Impurity G [4, 5]: 0.037 | Impurity H [4, 5]: 0.129 | Impurity I [4, 5]: 0.012 | Impurity A [4, 6]: 0.091 | Impurity B [4, 6]: 0.009 | Impurity C [4, 6]: 0.064 | Impurity D [4, 6]: 0.012 | Impurity E [4, 6]: 0.070 | Impurity F [4, 6]: 0.013 | Impurity G [4, 6]: 0.032 | Impurity H [4, 6]: 0.130 | Impurity I [4, 6]: 0.012 | Impurity A [4, 7]: 0.114 | Impurity B [4, 7]: 0.009 | Impurity C [4, 7]: 0.070 | Impurity D [4, 7]: 0.013 | Impurity E [4, 7]: 0.071 | Impurity F [4, 7]: 0 | Impurity G [4, 7]: 0.023 | Impurity H [4, 7]: 0.129 | Impurity I [4, 7]: 0.012 | Increase in related substances ([4]; accelerated stress conditions, up to 21 days at 90° C./78% RH): no significant increase in any related substance | Chemical stability in the solid state ([4]; up to 21 days at 90° C./78% RH): chemically very stable
